# According to publication PMC12416685, “3-O-acetylrubiarbonol B preferentially targets EGFR and MET over rubiarbonol B to inhibit NSCLC cell growth” (PLOS One, 2025):
# Columns and labels:
# Format in all cases: biochemical
# AKT1 = AKT1 (Homo sapiens, UniProt P31749); assay: ADP-Glo in vitro kinase assay; relative activity left at […]
# MET = MET (Homo sapiens, UniProt P08581); assay: ADP-Glo in vitro kinase assay
# EGFR = EGFR (Homo sapiens, UniProt P00533); assay: ADP-Glo in vitro kinase assay
# EGFR, sequence (P00533 25-1210): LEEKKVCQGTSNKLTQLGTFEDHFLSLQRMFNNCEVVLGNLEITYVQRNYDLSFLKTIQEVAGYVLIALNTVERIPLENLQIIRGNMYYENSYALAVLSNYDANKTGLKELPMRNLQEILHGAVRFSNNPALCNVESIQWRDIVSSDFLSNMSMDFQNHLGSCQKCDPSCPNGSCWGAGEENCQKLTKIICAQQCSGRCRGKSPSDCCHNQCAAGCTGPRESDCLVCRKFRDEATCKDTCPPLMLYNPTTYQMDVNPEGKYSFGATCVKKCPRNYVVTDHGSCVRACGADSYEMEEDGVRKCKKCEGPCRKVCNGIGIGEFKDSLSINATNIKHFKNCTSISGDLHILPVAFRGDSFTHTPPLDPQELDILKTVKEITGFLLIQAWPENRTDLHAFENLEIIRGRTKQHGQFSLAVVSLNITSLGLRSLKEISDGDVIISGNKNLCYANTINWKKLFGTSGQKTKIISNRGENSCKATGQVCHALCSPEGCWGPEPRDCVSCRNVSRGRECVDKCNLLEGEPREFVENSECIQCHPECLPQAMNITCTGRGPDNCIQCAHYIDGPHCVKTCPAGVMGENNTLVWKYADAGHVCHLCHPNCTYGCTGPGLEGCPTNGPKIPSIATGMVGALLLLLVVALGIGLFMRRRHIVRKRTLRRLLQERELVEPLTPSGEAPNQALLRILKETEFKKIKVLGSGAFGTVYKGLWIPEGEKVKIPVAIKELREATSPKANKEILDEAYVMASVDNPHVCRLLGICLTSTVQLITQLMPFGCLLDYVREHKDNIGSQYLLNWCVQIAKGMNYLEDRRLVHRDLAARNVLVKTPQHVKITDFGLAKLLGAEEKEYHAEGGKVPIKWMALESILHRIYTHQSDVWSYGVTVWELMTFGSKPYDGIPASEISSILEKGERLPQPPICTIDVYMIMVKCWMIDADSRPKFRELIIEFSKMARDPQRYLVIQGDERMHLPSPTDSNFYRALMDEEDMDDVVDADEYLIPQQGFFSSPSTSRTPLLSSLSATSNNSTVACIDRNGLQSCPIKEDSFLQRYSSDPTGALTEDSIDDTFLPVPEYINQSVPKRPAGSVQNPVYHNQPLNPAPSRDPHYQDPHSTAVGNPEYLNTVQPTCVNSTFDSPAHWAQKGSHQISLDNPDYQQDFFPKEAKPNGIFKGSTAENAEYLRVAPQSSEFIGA
# AKT1, sequence (P31749 whole entry): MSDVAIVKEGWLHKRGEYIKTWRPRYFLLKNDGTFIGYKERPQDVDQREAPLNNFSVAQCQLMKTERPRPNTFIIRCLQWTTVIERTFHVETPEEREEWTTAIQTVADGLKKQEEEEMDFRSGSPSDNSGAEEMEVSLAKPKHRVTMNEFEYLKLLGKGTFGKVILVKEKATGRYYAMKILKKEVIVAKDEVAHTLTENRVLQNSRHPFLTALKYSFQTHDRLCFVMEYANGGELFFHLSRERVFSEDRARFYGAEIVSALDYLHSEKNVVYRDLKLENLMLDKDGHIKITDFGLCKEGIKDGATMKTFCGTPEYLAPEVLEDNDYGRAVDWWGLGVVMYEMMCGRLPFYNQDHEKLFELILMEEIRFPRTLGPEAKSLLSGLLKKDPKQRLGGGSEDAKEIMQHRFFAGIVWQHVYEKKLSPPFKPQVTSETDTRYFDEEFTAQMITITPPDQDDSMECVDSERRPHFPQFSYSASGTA
# MET, sequence (P08581 25-307): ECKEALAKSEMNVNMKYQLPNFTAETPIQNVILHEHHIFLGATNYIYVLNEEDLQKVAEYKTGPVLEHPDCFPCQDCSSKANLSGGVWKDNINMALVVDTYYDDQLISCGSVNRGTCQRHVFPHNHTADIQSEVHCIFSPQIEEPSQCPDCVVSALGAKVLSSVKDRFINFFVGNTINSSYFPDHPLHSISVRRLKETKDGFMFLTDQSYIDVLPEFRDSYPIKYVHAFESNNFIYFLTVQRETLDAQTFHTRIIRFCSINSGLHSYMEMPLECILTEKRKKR
# MET, sequence (P08581 308-1390): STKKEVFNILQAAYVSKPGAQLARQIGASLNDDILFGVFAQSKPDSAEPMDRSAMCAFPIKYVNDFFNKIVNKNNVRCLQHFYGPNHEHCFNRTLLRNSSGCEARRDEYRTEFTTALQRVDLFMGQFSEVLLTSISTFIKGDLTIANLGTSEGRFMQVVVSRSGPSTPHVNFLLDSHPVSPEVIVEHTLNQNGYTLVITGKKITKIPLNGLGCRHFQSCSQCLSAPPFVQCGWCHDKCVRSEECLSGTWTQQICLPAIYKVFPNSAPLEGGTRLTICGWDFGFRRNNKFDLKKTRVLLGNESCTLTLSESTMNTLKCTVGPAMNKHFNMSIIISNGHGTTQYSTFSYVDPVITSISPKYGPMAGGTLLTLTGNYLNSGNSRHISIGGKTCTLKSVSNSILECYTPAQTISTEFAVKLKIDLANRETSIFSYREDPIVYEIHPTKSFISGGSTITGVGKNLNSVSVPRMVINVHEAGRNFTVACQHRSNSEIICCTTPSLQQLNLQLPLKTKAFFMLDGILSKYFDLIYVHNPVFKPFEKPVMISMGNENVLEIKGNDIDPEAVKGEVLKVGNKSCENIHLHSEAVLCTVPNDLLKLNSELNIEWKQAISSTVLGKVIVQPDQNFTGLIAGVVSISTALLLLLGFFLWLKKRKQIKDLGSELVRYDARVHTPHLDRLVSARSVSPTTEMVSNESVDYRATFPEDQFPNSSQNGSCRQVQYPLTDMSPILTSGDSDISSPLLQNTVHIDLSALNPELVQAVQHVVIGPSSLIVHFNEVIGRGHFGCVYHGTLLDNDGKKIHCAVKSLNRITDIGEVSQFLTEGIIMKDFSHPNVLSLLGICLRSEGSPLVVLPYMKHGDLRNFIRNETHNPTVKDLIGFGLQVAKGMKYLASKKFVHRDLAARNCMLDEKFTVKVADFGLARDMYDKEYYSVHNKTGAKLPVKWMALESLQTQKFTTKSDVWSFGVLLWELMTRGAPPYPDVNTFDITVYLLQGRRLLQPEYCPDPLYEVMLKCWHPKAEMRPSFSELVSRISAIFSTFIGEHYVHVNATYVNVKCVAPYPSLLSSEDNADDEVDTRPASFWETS
SMILES,activity at 8 µM (AKT1) [%],IC50 (MET) [nM],IC50 (EGFR) [µM]
"CC(=O)O[C@H]1CC[C@]2(C)C3=CC[C@]4(C)[C@H]5[C@H](O)C[C@@H](C(C)C)[C@]5(C)CC[C@@]4(C)[C@@H]3[C@@H](O)C[C@H]2C1(C)C [ARu-B, 3-O-acetylrubiarbonol B]",58,1700,3
"CC(C)[C@@H]1C[C@@H](O)[C@H]2[C@@]1(C)CC[C@@]1(C)[C@H]3C(=CC[C@]21C)[C@@]1(C)CC[C@H](O)C(C)(C)[C@@H]1C[C@@H]3O [Ru-B, rubiarbonol B]",67.1,4200,7.6
